Here are results for one substance from patent publication US8691764B2, “Inhibitors of NF-κB activity” (The Research Foundation for the State University of New York, priority 2007, dated 2014).

Test [1] has as its system NF-κB p65. The test can be described thus: Co-immunoprecipitation of annexin 1 with p65, HT-29 cells. Format: cell-based, human. The note with it: 3 h, NO-ASA 20 μM or Dex 4 μM. How it is done:
(§1) The gel shift assays were carried out according to the manufacturer's protocol (Panomics). Nuclear proteins (10 μg) from each sample were mixed with 10 ng biotinylated p65 double-stranded oligonucleotide probes (5′-[…]-3′ and its complement) (SEQ ID NO:9) in the presence of 1 μg Poly(I/C) DNA. The mixture was incubated at room temperature for 30 min. The binding complex was then resolved using a 6% polyacrylamide/glycerol gel in 0.5% Tris-borate-EDTA, transferred onto a nylon membrane, and fixed on the membrane by UV cross-linking The biotin-labeled probe was detected with streptavidin-horseradish peroxidase. Co-immunoprecipitation was performed as follows: about 500 μg of cell extracts were incubated overnight with 5 μg of agarose-conjugated anti-p65 (Santa Cruz Biotechnology) or anti-annexin 1 antibody (Santa Cruz, Calif.). The precipitate was washed five times with washing buffer (Santa Cruz Biotechnology), dissolved in 2× Laemmli buffer, boiled, and separated by SDS-PAGE and detected by Western blot analysis using ECL™ (Amersham Biosciences) as described above. Control experiments were performed by using rabbit IgG for p65 and mouse IgG2b for annexin 1, respectively (Santa Cruz Biotechnology).

The test system of test [2] is NF-κB. The test can be described thus: NF-κB activity ELISA, HT-29 cells. Format: cell-based, human. The note with it: 3 h. Background: An ELISA detects its analyte on a solid surface through an enzyme-linked reagent.
Test [3] has as its system NF-κB. The test can be described thus: NF-κB activity in treated Min and wild-type mice. Format: in vivo. Conditions: NO-ASA 100 mg/kg or Dex 10 mg/kg daily for 7 days. The procedure: (§2) To assess whether these changes occur in vivo, the inventors studied isolated small intestine epithelial cells from Min mice and the corresponding wild type mice C57BL/6J (of which the Min mice are a congenic derivative) treated with NO-ASA 100 mg/kg or Dex 10 mg/kg daily for 7 days. Min (multiple intestinal neoplasia), a mutant allele of the murine APC (adenomatous polyposis coli) locus, encodes a nonsense mutation at codon 850. Heterozygous Min mutants spontaneously develop tumors in the intestine and represent a model of intestinal carcinogenesis (M. Lipkin et al., Ann. N.Y. Acad. Sci. 889:14-19 (1999); A. Moser, H. Pitot, W. Dove, Science 247:322-324 (1990)). The levels of annexin 1 were increased in both Min and wild-type mice treated with either NO-ASA or Dex (FIG. 7A and FIG. 8A). The induction of annexin 1 by NO-ASA or Dex was accompanied by the inhibition of NF-κB activity (FIGS. 7B and 8B).
(§3) A mouse model of multiple intestinal neoplasia, the Min mice, and the congenic parent wild-type mice were used to test the in vivo action of NO-ASA in the induction of annexin 1. Both wild-type and Min mice were treated for 7 days with vehicle or NO-ASA 100 mg/kg. After 7 days of treatment, the mice were sacrificed and the epithelial cells were evaluated as in Example 6 by confocal microscopy.

In test [4] the test system is NF-κB p65. The test can be described thus: Confocal microscopy co-localization of annexin 1 and p65, BxPC-3 cells. Conditions: 3 h, NO-ASA 20 μM or Dex 4 μM. Format: cell-based, human. How it is done: BxPC-3 cells were seeded on cover-glasses in a 12-well plate for 24 h. The cells were exposed to 10 or 20 μM NO-ASA or 2 or 4 μM Dex for 3 h, fixed with 4% paraformaldehyde in PBS containing 30 mM sucrose, permeabilized with 0.2% saponin in PBS containing 30 mM sucrose, and blocked with 5% normal goat serum in PBS containing 1% BSA. The cells were incubated with mouse monoclonal IgG2b anti-annexin 1 (Santa Cruz Biotechnology) and rabbit monoclonal IgG anti-p65 (Cell Signaling, MA) at RT for 1 h. After three washes with PBS containing 1% BSA, the cells were incubated with Alexa555 conjugated donkey anti-mouse IgG (Molecular Probes) and Alexa 488 conjugated goat anti-rabbit IgG (Molecular Probes) at RT for an hour. Images were acquired with a Zeiss LSM 510 META NLO Two-Photon Laser Scanning Image Confocal Microscope and the colocalization scores were generated by the Colocalization Macro program. The control experiments were performed using non-specific mouse IgG2b and/or rabbit IgG. Red fluorescence localized annexin 1, green fluorescence localized p65 (NF-κB) and co-localization of the two proteins generated yellow fluorescence.

Test [5] concerns NF-κB p65. The test can be described thus: Co-localization of annexin 1 and p65 in intestinal epithelial cells of treated mice. Format: in vivo. Conditions: NO-ASA 100 mg/kg, 7 days. The procedure:
as §3

In a further test the test system is Bcl-xL. Put plainly: NF-κB dependent gene (Bcl-xL) expression in epithelial cells of treated mice. Format: in vivo. The note with it: wild-type and Min mice. How it is done: as §2
For test [6], the system named is NF-κB. Put plainly: EMSA of NF-κB binding to κB probe, nuclear extract of treated BxPC-3 cells. Format: cell-based, human. The note with it: BxPC-3 nuclear extract, 3 h. How it is done:
as §1, with “Biotechnology). […]” for “Biotechnology).”
(In general: Mobility shift assays separate free from complexed probe on a gel.)

In test [7] the test system is NF-κB p65. The test can be described thus: Co-immunoprecipitation of annexin 1 with p65, BxPC-3 cells. Format: cell-based, human. The note with it: 3 h, NO-ASA 20 μM or Dex 4 μM. The procedure:
as §1

In test [8] the test system is BxPC-3 human pancreatic cancer cells. Put plainly: MTT cell growth assay, BxPC-3. The note with it: 24 hours. Format: cell-based. How it is done: The growth of the cells at 24 hours was determined using the MTT assay, which was carried out according to the manufacturer's protocol (Sigma). BxPC-3 cells were seeded in a 96-well plate and cultured in RPMI 1640 medium supplemented with 10% fetal bovine serum and 1% penicillin/streptomycin, as described above. […] MTT solution (M-0283) in an amount equal to 10% of the culture medium volume was then added to each well and the cells were incubated for 4 hours. The resulting MTT formazan crystals were dissolved by adding MTT Solvent (M-0408) directly to the culture in an amount equal to the original culture volume with gentle stirring and then quantitated by an ELISA Model 680 Microplate Reader (Biorad).

For the substance nitric oxide-donating aspirin [NO-ASA], the “co-immunoprecipitation of annexin 1 with p65” value in the test with NF-κB p65 [1] and with NF-κB p65 [7] was “co-immunoprecipitated with p65” each time. Also, the NF-κB activity entry in the test with NF-κB [2] is on record as “inhibited NF-κB activity in a concentration-dependent manner”; in the test with NF-κB [3] (Min mice), “inhibited NF-κB activity”; in the test on NF-κB [3] (wild-type mice), “inhibited NF-κB activity”. Moreover, the “co-localization of annexin 1 and p65” value with NF-κB p65 [4] is recorded as “co-localize most strongly in the nucleus”. For the same substance, the “colocalization of annexin 1 and p65 in intestinal cells” value was “greatly enhanced” in the test with NF-κB p65 [5] (Min mice) and “modest but significant colocalization” in the test with NF-κB p65 [5] (wild type mice). The “NF-κB dependent gene expression (Bcl-xL)” value with Bcl-xL is recorded as “inhibited NF-κB dependent gene expression”. In addition, the “binding of NF-κB to the DNA probe (EMSA)” value in the test on NF-κB [6] is listed as “inhibited the binding of NF-κB to the DNA probe in a concentration-dependent manner”. Further, the “binding of NF-κB to the DNA probe (EMSA) at 20 μM” value in the test on NF-κB [6] (20 μM NO-ASA) is “substantial suppression of binding”. Also, the “growth of BxPC-3 cells” value in test [8] is on record as “inhibits the growth”.
